Source: the kinase profiling compilation of Christmann-Franck et al. (2016)

What was measured:
Assay in all cases: radiometric filter-binding kinase assay, Kinase HotSpot
Settings in all cases: compound 0.5 µM; ATP 10 µM
AURKA (human) = AURKA (human) (UniProt O14965)
AURKC (human) = AURKC (human) (UniProt Q9UQB9)
CAMK1D (human) = CAMK1D (human) (UniProt Q8IU85)
CDK5 CDK5R1 p35 (human) = CDK5 CDK5R1 p35 (human) (UniProt Q00535+Q15078)
CDK9 CCNK (human) = CDK9 CCNK (human) (UniProt O75909+P50750)
CDK9 CCNT1 (human) = CDK9 CCNT1 (human) (UniProt P50750+O60563)
CLK1 (human) = CLK1 (human) (UniProt P49759)
CSNK1E (human) = CSNK1E (human) (UniProt P49674)
FGFR4 (human) = FGFR4 (human) (UniProt P22455)
FGR (human) = FGR (human) (UniProt P09769)
FLT1 (human) = FLT1 (human) (UniProt P17948)
GRK7 (human) = GRK7 (human) (UniProt Q8WTQ7)
HIPK1 (human) = HIPK1 (human) (UniProt Q86Z02)
HIPK3 (human) = HIPK3 (human) (UniProt Q9H422)
HIPK4 (human) = HIPK4 (human) (UniProt Q8NE63)
IRAK4 (human) = IRAK4 (human) (UniProt Q9NWZ3)
MAP3K11 (human) = MAP3K11 (human) (UniProt Q16584)
MAP3K2 (human) = MAP3K2 (human) (UniProt Q9Y2U5)
MAP3K3 (human) = MAP3K3 (human) (UniProt Q99759)
MAP3K8 (human) = MAP3K8 (human) (UniProt P41279)
MAP4K5 (human) = MAP4K5 (human) (UniProt Q9Y4K4)
MAPKAPK2 (human) = MAPKAPK2 (human) (UniProt P49137)
NEK1 (human) = NEK1 (human) (UniProt Q96PY6)
NTRK1 (human) = NTRK1 (human) (UniProt P04629)
NTRK3 (human) = NTRK3 (human) (UniProt Q16288)
PAK2 (human) = PAK2 (human) (UniProt Q13177)
PLK3 (human) = PLK3 (human) (UniProt Q9H4B4)
PNCK (human) = PNCK (human) (UniProt Q6P2M8)
PRKCH (human) = PRKCH (human) (UniProt P24723)
RAF1 (human) = RAF1 (human) (UniProt P04049)
RPS6KB1 (human) = RPS6KB1 (human) (UniProt P23443)
SGK2 (human) = SGK2 (human) (UniProt Q9HBY8)
SGK3 (human) = SGK3 (human) (UniProt Q96BR1)
SLK (human) = SLK (human) (UniProt Q9H2G2)
STK10 (human) = STK10 (human) (UniProt O94804)
STK4 (human) = STK4 (human) (UniProt Q13043)
SYK (human) = SYK (human) (UniProt P43405)
TAOK3 (human) = TAOK3 (human) (UniProt Q9H2K8)
TEK (human) = TEK (human) (UniProt Q02763)
TNK2 (human) = TNK2 (human) (UniProt Q07912)
VRK1 (human) = VRK1 (human) (UniProt Q99986)
WEE1 (human) = WEE1 (human) (UniProt P30291)

Sequence of NTRK3 (human) (Q16288 whole entry, looked up): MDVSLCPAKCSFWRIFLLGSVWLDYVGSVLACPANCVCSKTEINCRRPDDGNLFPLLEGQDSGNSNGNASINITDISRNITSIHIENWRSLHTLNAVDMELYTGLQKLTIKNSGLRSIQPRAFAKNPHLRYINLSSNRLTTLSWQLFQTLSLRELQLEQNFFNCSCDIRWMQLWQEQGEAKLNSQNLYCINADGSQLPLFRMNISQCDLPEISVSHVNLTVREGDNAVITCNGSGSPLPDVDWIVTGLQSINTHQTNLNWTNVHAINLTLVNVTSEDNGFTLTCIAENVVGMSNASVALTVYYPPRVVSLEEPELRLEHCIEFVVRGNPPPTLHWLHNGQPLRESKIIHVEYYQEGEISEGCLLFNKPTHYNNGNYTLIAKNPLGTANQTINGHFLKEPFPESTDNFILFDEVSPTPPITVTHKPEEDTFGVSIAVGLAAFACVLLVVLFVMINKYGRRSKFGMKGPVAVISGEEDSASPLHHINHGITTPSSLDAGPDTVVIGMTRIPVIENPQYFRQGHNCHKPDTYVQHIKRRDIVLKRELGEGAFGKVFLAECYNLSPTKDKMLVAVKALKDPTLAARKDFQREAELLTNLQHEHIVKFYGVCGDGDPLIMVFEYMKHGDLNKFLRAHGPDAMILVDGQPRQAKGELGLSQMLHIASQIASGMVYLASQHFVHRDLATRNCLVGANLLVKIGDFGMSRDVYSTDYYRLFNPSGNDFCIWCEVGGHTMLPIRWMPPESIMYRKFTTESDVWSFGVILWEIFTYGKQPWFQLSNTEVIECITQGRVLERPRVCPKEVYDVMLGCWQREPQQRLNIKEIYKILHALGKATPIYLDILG
Sequence of VRK1 (human) (Q99986 whole entry, looked up): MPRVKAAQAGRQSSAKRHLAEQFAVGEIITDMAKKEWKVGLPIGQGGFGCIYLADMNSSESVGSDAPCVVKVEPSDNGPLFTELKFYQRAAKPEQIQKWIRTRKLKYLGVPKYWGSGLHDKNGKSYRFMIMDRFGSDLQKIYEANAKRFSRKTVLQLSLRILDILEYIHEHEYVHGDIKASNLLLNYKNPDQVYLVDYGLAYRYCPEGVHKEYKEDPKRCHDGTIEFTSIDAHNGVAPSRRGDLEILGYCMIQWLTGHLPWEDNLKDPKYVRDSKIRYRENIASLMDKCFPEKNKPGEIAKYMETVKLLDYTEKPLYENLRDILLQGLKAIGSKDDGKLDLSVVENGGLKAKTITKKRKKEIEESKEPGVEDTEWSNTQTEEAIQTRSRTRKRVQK
Sequence of NEK1 (human) (Q96PY6 whole entry, looked up): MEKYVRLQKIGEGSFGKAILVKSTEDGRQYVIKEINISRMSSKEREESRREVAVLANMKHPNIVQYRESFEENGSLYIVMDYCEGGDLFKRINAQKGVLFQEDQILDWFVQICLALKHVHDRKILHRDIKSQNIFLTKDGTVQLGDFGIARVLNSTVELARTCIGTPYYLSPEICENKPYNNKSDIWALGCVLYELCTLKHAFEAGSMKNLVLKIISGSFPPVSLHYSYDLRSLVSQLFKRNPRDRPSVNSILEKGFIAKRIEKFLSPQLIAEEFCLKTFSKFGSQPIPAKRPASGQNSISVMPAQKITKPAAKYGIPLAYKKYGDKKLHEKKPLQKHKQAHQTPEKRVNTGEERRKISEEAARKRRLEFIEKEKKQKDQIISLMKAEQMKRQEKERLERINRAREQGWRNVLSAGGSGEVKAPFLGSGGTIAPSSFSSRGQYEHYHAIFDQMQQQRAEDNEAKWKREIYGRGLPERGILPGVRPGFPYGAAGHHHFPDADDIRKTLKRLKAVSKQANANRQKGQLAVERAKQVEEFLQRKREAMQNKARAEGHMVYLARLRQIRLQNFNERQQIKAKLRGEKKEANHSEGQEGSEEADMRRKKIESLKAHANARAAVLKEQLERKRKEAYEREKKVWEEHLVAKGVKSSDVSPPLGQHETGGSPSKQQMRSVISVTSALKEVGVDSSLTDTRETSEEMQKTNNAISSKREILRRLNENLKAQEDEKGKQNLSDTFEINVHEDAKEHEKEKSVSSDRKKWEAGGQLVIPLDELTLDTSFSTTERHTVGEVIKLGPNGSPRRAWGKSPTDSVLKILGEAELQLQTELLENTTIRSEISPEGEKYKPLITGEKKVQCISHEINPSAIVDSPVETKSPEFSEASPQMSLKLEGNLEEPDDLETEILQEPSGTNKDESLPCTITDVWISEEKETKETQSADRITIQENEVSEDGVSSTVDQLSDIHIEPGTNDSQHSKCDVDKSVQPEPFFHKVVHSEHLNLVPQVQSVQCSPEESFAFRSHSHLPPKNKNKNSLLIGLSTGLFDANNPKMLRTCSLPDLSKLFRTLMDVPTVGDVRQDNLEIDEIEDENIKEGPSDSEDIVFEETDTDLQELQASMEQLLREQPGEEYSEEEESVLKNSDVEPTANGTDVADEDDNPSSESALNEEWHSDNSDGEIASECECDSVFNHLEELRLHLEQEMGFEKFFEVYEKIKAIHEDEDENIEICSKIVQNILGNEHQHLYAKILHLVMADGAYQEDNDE
Sequence of CAMK1D (human) (Q8IU85 whole entry, looked up): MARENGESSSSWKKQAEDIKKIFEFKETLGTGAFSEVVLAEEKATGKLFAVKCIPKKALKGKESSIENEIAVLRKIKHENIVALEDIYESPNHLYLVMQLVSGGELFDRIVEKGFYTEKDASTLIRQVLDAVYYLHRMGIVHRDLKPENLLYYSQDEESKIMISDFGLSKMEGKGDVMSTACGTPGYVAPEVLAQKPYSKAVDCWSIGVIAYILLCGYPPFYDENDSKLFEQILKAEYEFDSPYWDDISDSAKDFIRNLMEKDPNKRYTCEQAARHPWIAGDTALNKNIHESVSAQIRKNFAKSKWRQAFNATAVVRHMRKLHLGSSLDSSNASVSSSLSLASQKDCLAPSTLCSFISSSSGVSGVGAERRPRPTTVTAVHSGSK
Sequence of STK4 (human) (Q13043 whole entry, looked up): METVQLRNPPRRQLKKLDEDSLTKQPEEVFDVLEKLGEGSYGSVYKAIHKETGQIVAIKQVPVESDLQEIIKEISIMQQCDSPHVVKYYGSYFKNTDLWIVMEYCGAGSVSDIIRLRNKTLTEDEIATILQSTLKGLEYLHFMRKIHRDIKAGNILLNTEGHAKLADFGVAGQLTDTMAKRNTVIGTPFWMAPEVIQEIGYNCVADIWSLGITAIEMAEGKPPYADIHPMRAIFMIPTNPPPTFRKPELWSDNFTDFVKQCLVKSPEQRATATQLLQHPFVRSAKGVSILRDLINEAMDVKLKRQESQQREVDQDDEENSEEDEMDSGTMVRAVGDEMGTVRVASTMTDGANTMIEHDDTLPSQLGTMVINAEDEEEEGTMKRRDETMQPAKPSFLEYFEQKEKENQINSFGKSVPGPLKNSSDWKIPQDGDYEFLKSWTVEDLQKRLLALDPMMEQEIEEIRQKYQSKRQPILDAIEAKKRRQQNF
Sequence of FGR (human) (P09769 whole entry, looked up): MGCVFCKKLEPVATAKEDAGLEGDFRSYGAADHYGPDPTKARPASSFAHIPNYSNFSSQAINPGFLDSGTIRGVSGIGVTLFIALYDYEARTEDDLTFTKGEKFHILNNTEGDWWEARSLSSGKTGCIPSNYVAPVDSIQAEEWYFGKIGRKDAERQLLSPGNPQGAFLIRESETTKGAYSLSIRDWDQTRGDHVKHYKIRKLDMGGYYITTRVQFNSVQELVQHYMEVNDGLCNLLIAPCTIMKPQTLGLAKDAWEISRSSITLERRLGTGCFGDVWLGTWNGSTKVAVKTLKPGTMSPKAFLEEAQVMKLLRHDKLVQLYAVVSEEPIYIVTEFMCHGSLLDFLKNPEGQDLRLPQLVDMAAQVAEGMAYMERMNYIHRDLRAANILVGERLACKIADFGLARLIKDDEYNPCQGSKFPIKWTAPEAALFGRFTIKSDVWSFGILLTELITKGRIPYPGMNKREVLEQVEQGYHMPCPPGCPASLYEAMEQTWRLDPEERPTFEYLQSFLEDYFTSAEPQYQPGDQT
Sequence of MAPKAPK2 (human) (P49137 whole entry, looked up): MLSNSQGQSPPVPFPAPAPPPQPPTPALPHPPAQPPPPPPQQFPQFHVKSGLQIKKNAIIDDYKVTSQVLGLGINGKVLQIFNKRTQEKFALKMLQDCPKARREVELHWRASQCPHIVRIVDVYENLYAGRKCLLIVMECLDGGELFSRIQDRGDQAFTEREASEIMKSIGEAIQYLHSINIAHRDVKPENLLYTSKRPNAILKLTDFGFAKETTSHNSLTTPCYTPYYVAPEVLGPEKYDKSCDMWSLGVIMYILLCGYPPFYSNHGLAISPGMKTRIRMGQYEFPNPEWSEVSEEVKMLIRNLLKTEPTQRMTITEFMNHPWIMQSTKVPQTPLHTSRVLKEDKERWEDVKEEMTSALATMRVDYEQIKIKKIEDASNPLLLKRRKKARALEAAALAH
Sequence of HIPK4 (human) (Q8NE63 whole entry, looked up): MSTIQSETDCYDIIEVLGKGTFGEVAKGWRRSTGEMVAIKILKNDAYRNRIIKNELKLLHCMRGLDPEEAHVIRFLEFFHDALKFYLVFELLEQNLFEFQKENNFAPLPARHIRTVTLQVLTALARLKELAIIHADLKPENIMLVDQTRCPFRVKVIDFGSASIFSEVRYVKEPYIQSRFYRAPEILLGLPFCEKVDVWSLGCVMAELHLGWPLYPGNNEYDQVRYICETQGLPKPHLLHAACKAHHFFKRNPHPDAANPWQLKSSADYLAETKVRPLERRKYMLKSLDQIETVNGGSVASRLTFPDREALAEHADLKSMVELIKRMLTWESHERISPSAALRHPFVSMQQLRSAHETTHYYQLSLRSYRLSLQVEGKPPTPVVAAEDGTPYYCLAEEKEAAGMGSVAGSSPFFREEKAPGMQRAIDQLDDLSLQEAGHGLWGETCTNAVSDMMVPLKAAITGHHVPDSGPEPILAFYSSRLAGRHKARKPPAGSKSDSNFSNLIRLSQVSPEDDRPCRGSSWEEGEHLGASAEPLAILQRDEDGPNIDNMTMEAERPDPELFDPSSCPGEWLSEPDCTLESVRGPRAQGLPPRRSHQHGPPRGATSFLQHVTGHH

CC(C)n1cnc2c(Nc3cccc(Cl)c3)nc(NCCO)nc21
residual activity (AURKA (human)): 108%
residual activity (AURKC (human)): 92.1%
residual activity (CAMK1D (human)): 98.1%
residual activity (CDK5 CDK5R1 p35 (human)): 22.7%
residual activity (CDK9 CCNK (human)): 86.9%
residual activity (CDK9 CCNT1 (human)): 87.4%
residual activity (CLK1 (human)): 77.9%
residual activity (CSNK1E (human)): 65.4%
residual activity (FGFR4 (human)): 86.5%
residual activity (FGR (human)): 61.5%
residual activity (FLT1 (human)): 93.4%
residual activity (GRK7 (human)): 88.7%
residual activity (HIPK1 (human)): 99.8%
residual activity (HIPK3 (human)): 99.9%
residual activity (HIPK4 (human)): 94.6%
residual activity (IRAK4 (human)): 95.2%
residual activity (MAP3K11 (human)): 51%
residual activity (MAP3K2 (human)): 97.6%
residual activity (MAP3K3 (human)): 97.4%
residual activity (MAP3K8 (human)): 92.2%
residual activity (MAP4K5 (human)): 81.5%
residual activity (MAPKAPK2 (human)): 98.9%
residual activity (NEK1 (human)): 90.4%
residual activity (NTRK1 (human)): 98.2%
residual activity (NTRK3 (human)): 30.7%
residual activity (PAK2 (human)): 106%
residual activity (PLK3 (human)): 48.5%
residual activity (PNCK (human)): 100%
residual activity (PRKCH (human)): 99.4%
residual activity (RAF1 (human)): 105%
residual activity (RPS6KB1 (human)): 93.3%
residual activity (SGK2 (human)): 97.4%
residual activity (SGK3 (human)): 97.1%
residual activity (SLK (human)): 84.8%
residual activity (STK10 (human)): 86.9%
residual activity (STK4 (human)): 93.1%
residual activity (SYK (human)): 85.1%
residual activity (TAOK3 (human)): 91.8%
residual activity (TEK (human)): 97.4%
residual activity (TNK2 (human)): 70.8%
residual activity (VRK1 (human)): 96.3%
residual activity (WEE1 (human)): 98.9%

Cc1cc2ncc(-c3ccccc3)nc2cc1C
residual activity (AURKA (human)): 92.1%
residual activity (AURKC (human)): 92.1%
residual activity (CAMK1D (human)): 100%
residual activity (CDK5 CDK5R1 p35 (human)): 89.1%
residual activity (CDK9 CCNK (human)): 101%
residual activity (CDK9 CCNT1 (human)): 93.9%
residual activity (CLK1 (human)): 95.4%
residual activity (CSNK1E (human)): 85.5%
residual activity (FGFR4 (human)): 77.2%
residual activity (FGR (human)): 99.1%
residual activity (FLT1 (human)): 85.2%
residual activity (GRK7 (human)): 102%
residual activity (HIPK1 (human)): 105%
residual activity (HIPK3 (human)): 94.4%
residual activity (HIPK4 (human)): 120%
residual activity (IRAK4 (human)): 93.1%
residual activity (MAP3K11 (human)): 97.3%
residual activity (MAP3K2 (human)): 105%
residual activity (MAP3K3 (human)): 103%
residual activity (MAP3K8 (human)): 106%
residual activity (MAP4K5 (human)): 89.3%
residual activity (MAPKAPK2 (human)): 95.9%
residual activity (NEK1 (human)): 96.1%
residual activity (NTRK1 (human)): 105%
residual activity (NTRK3 (human)): 88.2%
residual activity (PAK2 (human)): 99.3%
residual activity (PLK3 (human)): 90.1%
residual activity (PNCK (human)): 96.3%
residual activity (PRKCH (human)): 100%
residual activity (RAF1 (human)): 95.6%
residual activity (RPS6KB1 (human)): 88.2%
residual activity (SGK2 (human)): 101%
residual activity (SGK3 (human)): 101%
residual activity (SLK (human)): 91.9%
residual activity (STK10 (human)): 90.7%
residual activity (STK4 (human)): 98.6%
residual activity (SYK (human)): 97.4%
residual activity (TAOK3 (human)): 96.2%
residual activity (TEK (human)): 99.7%
residual activity (TNK2 (human)): 98.4%
residual activity (VRK1 (human)): 101%
residual activity (WEE1 (human)): 105%

Nc1n[nH]c2nnc(-c3c(-c4ccccc4)nn4ccccc34)cc12
residual activity (AURKA (human)): 101%
residual activity (AURKC (human)): 96.4%
residual activity (CAMK1D (human)): 95.9%
residual activity (CDK5 CDK5R1 p35 (human)): 105%
residual activity (CDK9 CCNK (human)): 98.5%
residual activity (CDK9 CCNT1 (human)): 97.3%
residual activity (CLK1 (human)): 108%
residual activity (CSNK1E (human)): 80.9%
residual activity (FGFR4 (human)): 104%
residual activity (FGR (human)): 92.9%
residual activity (FLT1 (human)): 96.7%
residual activity (GRK7 (human)): 96.7%
residual activity (HIPK1 (human)): 99.7%
residual activity (HIPK3 (human)): 95.3%
residual activity (HIPK4 (human)): 105%
residual activity (IRAK4 (human)): 99.7%
residual activity (MAP3K11 (human)): 94.3%
residual activity (MAP3K2 (human)): 97.8%
residual activity (MAP3K3 (human)): 110%
residual activity (MAP3K8 (human)): 95%
residual activity (MAP4K5 (human)): 50.3%
residual activity (MAPKAPK2 (human)): 105%
residual activity (NEK1 (human)): 109%
residual activity (NTRK1 (human)): 101%
residual activity (NTRK3 (human)): 76.6%
residual activity (PAK2 (human)): 100%
residual activity (PLK3 (human)): 100%
residual activity (PNCK (human)): 99.6%
residual activity (PRKCH (human)): 77.2%
residual activity (RAF1 (human)): 95.6%
residual activity (RPS6KB1 (human)): 97.7%
residual activity (SGK2 (human)): 98.8%
residual activity (SGK3 (human)): 90.2%
residual activity (SLK (human)): 94%
residual activity (STK10 (human)): 70.9%
residual activity (STK4 (human)): 99.1%
residual activity (SYK (human)): 97.4%
residual activity (TAOK3 (human)): 101%
residual activity (TEK (human)): 96.6%
residual activity (TNK2 (human)): 82.7%
residual activity (VRK1 (human)): 92.2%
residual activity (WEE1 (human)): 92.4%
